# Assay results published in PMC5218480 (PLoS ONE, 2017).
# Test system: MV-4-11 cells
# Assay: Gene expression microarray analysis (Affymetrix PrimeView) and GSEA
# Assay type: cell-based, human
# Set-up: RFU PODN (11730768_x_at) / Fold change /veh PODN (11730768_x_at) / RFU LINC00158 (11744669_a_at) / Fold change /veh LINC00158 (11744669_a_at) / RFU DUSP10 (11751237_a_at) / Fold change /veh DUSP10 (11751237_a_at) / RFU ID3 (11757404_x_at) / Fold change /veh ID3 (11757404_x_at) / RFU PLEKHG5 (11737974_s_at) / Fold change /veh PLEKHG5 (11737974_s_at) / RFU LRRC4B (11730491_at) / Fold change /veh LRRC4B (11730491_at) / RFU GIMAP4 (11747438_a_at) / Fold change /veh GIMAP4 (11747438_a_at) / RFU KRT8 (11758183_x_at) / Fold change /veh KRT8 (11758183_x_at) / RFU CNN1 (11734310_a_at) / Fold change /veh CNN1 (11734310_a_at) / RFU VPS37D (11726825_at) / Fold change /veh VPS37D (11726825_at) / RFU C10orf10 (11716522_x_at) / Fold change /veh C10orf10 (11716522_x_at) / RFU KIR2DL2 /// KIR2DL4 /// KIR2DL5A /// KIR2DL5B /// KIR2DS1 /// KIR2DS2 /// KIR2DS3 /// KIR2DS4 /// KIR3DL3 /// KIR3DL3 /// KIR3DS1 (11738374_at) / Fold change /veh KIR2DL2 /// KIR2DL4 /// KIR2DL5A /// KIR2DL5B /// KIR2DS1 /// KIR2DS2 /// KIR2DS3 /// KIR2DS4 /// KIR3DL3 /// KIR3DL3 /// KIR3DS1 (11738374_at) / RFU C1QL1 (11718748_at) / Fold change /veh C1QL1 (11718748_at) / RFU TMPRSS4 (11747572_a_at) / Fold change /veh TMPRSS4 (11747572_a_at) / RFU HAMP (11756126_x_at) / Fold change /veh HAMP (11756126_x_at) / RFU RNFT2 (11725882_a_at) / Fold change /veh RNFT2 (11725882_a_at) / RFU NR4A2 (11747474_a_at) / Fold change /veh NR4A2 (11747474_a_at) / RFU ABCC12 (11746883_a_at) / Fold change /veh ABCC12 (11746883_a_at) / RFU TMEM136 (11760407_x_at) / Fold change /veh TMEM136 (11760407_x_at) / RFU CLDN22 /// WWC2 (11732394_at) / Fold change /veh CLDN22 /// WWC2 (11732394_at) / RFU HLA-DPB1 (11760878_x_at) / Fold change /veh HLA-DPB1 (11760878_x_at) / RFU SPINT1 (11716480_a_at) / Fold change /veh SPINT1 (11716480_a_at) / RFU GAP43 (11754022_s_at) / Fold change /veh GAP43 (11754022_s_at) / RFU A4GNT (11735810_at) / Fold change /veh A4GNT (11735810_at) / RFU PRB3 (11715151_x_at) / Fold change /veh PRB3 (11715151_x_at) / RFU TUBB4B (11761932_at) / Fold change /veh TUBB4B (11761932_at) / RFU CAPN14 (11732068_a_at) / Fold change /veh CAPN14 (11732068_a_at) / RFU TMCC2 (11721928_a_at) / Fold change /veh TMCC2 (11721928_a_at) / RFU IRGQ (11745062_a_at) / Fold change /veh IRGQ (11745062_a_at) / RFU FAM174B (11720279_a_at) / Fold change /veh FAM174B (11720279_a_at) / RFU TMPRSS4 (11748680_a_at) / Fold change /veh TMPRSS4 (11748680_a_at) / RFU FAM212B (11763350_a_at) / Fold change /veh FAM212B (11763350_a_at) / RFU PLEKHG5 (11743358_a_at) / Fold change /veh PLEKHG5 (11743358_a_at) / RFU ZSCAN30 (11745921_a_at) / Fold change /veh ZSCAN30 (11745921_a_at) / RFU CMKLR1 (11741424_a_at) / Fold change /veh CMKLR1 (11741424_a_at) / RFU LOC101060620 /// MAPK8IP1 (11723275_at) / Fold change /veh LOC101060620 /// MAPK8IP1 (11723275_at) / RFU SPTSSB (11747773_x_at) / Fold change /veh SPTSSB (11747773_x_at) / RFU PRSS12 (11739890_at) / Fold change /veh PRSS12 (11739890_at) / RFU BIN1 (11741810_x_at) / Fold change /veh BIN1 (11741810_x_at) / RFU WNT11 (11732464_a_at) / Fold change /veh WNT11 (11732464_a_at) / RFU C10orf10 (11716521_a_at) / Fold change /veh C10orf10 (11716521_a_at) / RFU C5orf56 (11738089_at) / Fold change /veh C5orf56 (11738089_at) / RFU CYB561 (11721691_x_at) / Fold change /veh CYB561 (11721691_x_at) / RFU ANKRD19P (11752326_a_at) / Fold change /veh ANKRD19P (11752326_a_at) / RFU OR2T12 /// OR2T33 /// OR2T8 (11738714_s_at) / Fold change /veh OR2T12 /// OR2T33 /// OR2T8 (11738714_s_at) / RFU VCAN (11748164_a_at) / Fold change /veh VCAN (11748164_a_at) / RFU JSRP1 (11732532_at) / Fold change /veh JSRP1 (11732532_at) / RFU KRTAP10-11 (11738290_x_at) / Fold change /veh KRTAP10-11 (11738290_x_at) / RFU MYO3A (11730013_a_at) / Fold change /veh MYO3A (11730013_a_at) / RFU EBF3 (11725865_a_at) / Fold change /veh EBF3 (11725865_a_at) / RFU CAMK2N1 (11719241_x_at) / Fold change /veh CAMK2N1 (11719241_x_at) / RFU C5orf56 (11738088_a_at) / Fold change /veh C5orf56 (11738088_a_at) / RFU OLFML3 (11715873_a_at) / Fold change /veh OLFML3 (11715873_a_at) / RFU LOC100653217 /// NTM (11731650_a_at) / Fold change /veh LOC100653217 /// NTM (11731650_a_at) / RFU MAPK11 (11762145_a_at) / Fold change /veh MAPK11 (11762145_a_at) / RFU FIZ1 (11724087_x_at) / Fold change /veh FIZ1 (11724087_x_at) / RFU OASL (11726364_x_at) / Fold change /veh OASL (11726364_x_at) / RFU SOX15 (11748057_x_at) / Fold change /veh SOX15 (11748057_x_at) / RFU CD79A (11719716_a_at) / Fold change /veh CD79A (11719716_a_at) / RFU HIST1H1D (11736915_at) / Fold change /veh HIST1H1D (11736915_at) / RFU CASKIN2 (11723855_a_at) / Fold change /veh CASKIN2 (11723855_a_at) / RFU LOC730098 (11760151_x_at) / Fold change /veh LOC730098 (11760151_x_at) / RFU OR4N2 (11742367_at) / Fold change /veh OR4N2 (11742367_at) / RFU PRRT2 (11749266_a_at) / Fold change /veh PRRT2 (11749266_a_at) / RFU SNX32 (11753110_a_at) / Fold change /veh SNX32 (11753110_a_at) / RFU CDHR5 (11726645_a_at) / Fold change /veh CDHR5 (11726645_a_at) / RFU RCAN1 (11760418_a_at) / Fold change /veh RCAN1 (11760418_a_at) / RFU FAM167A (11723789_a_at) / Fold change /veh FAM167A (11723789_a_at) / RFU FAM26E (11764081_at) / Fold change /veh FAM26E (11764081_at) / RFU ISYNA1 (11749810_s_at) / Fold change /veh ISYNA1 (11749810_s_at) / RFU ACY1 (11761880_at) / Fold change /veh ACY1 (11761880_at) / RFU 11764098_at / Fold change /veh 11764098_at / RFU SAMD14 (11745864_x_at) / Fold change /veh SAMD14 (11745864_x_at) / RFU NPB (11741838_a_at) / Fold change /veh NPB (11741838_a_at) / RFU TMPRSS6 (11731388_a_at) / Fold change /veh TMPRSS6 (11731388_a_at) / RFU KRTAP10-2 (11738614_at) / Fold change /veh KRTAP10-2 (11738614_at) / RFU ARHGAP8 /// PRR5-ARHGAP8 (11727945_x_at) / Fold change /veh ARHGAP8 /// PRR5-ARHGAP8 (11727945_x_at) / RFU KRTAP5-7 /// NADSYN1 (11734609_at) / Fold change /veh KRTAP5-7 /// NADSYN1 (11734609_at) / RFU RASL12 (11751679_a_at) / Fold change /veh RASL12 (11751679_a_at) / RFU CDKN2B (11736163_a_at) / Fold change /veh CDKN2B (11736163_a_at) / RFU PRF1 (11729649_at) / Fold change /veh PRF1 (11729649_at) / RFU, ZNF638 /// ZNF638-IT1 / Fold change vs veh, ZNF638 /// ZNF638-IT1 / RFU, PANK3 / Fold change vs veh, PANK3 / RFU, SH3YL1 / Fold change vs veh, SH3YL1 / RFU, ZEB2 / Fold change vs veh, ZEB2 / RFU, NRIP1 / Fold change vs veh, NRIP1 / RFU, PTTG1IP / Fold change vs veh, PTTG1IP / RFU, CAPN2 / Fold change vs veh, CAPN2 / RFU, MED14 / Fold change vs veh, MED14 / RFU, SNORA58 / Fold change vs veh, SNORA58 / RFU, C1orf63 / Fold change vs veh, C1orf63 / RFU, LRRFIP1 / Fold change vs veh, LRRFIP1 / RFU, NDUFAF7 / Fold change vs veh, NDUFAF7 / RFU, SLC12A2 / Fold change vs veh, SLC12A2 / RFU, IBTK / Fold change vs veh, IBTK / RFU, ESF1 / Fold change vs veh, ESF1 / Fold change vs veh, TMEM50B / RFU, TAOK1 / Fold change vs veh, TAOK1 / RFU, ACBD3 / Fold change vs veh, ACBD3 / RFU, TMA16 / Fold change vs veh, TMA16 / RFU, RWDD3 / Fold change vs veh, RWDD3 / RFU, BCAT1 / Fold change vs veh, BCAT1 / RFU, EDEM3 / Fold change vs veh, EDEM3 / RFU, TMEM33 / Fold change vs veh, TMEM33 / RFU, WDR75 / Fold change vs veh, WDR75 / RFU, AHCTF1 / Fold change vs veh, AHCTF1 / RFU, TFRC / Fold change vs veh, TFRC / RFU, ZDHHC17 / Fold change vs veh, ZDHHC17 / RFU, NOM1 / Fold change vs veh, NOM1 / RFU, ARL8B / Fold change vs veh, ARL8B / RFU, ZBTB11 / Fold change vs veh, ZBTB11 / RFU, TAMM41 / Fold change vs veh, TAMM41 / RFU, KIAA1704 /// LOC100996395 / Fold change vs veh, KIAA1704 /// LOC100996395 / RFU, ING1 / Fold change vs veh, ING1 / RFU, TRMT61B / Fold change vs veh, TRMT61B / RFU, FUBP3 / Fold change vs veh, FUBP3 / RFU, TP53 / Fold change vs veh, TP53 / RFU, TNKS2 / Fold change vs veh, TNKS2 / RFU, ZFP14 / Fold change vs veh, ZFP14 / RFU, ACTR2 / Fold change vs veh, ACTR2 / RFU, PPP3R1 / Fold change vs veh, PPP3R1 / RFU, PIK3R1 / Fold change vs veh, PIK3R1 / RFU, HNRNPA1 / Fold change vs veh, HNRNPA1 / RFU, RNF170 / Fold change vs veh, RNF170 / RFU, ZNF28 / Fold change vs veh, ZNF28 / RFU, RNGTT / Fold change vs veh, RNGTT / RFU, OGT / Fold change vs veh, OGT / RFU, BRD1 / Fold change vs veh, BRD1 / RFU, MARS / Fold change vs veh, MARS / RFU, ZNF655 / Fold change vs veh, ZNF655 / RFU, FAHD1 / Fold change vs veh, FAHD1 / RFU, BDP1 / Fold change vs veh, BDP1 / RFU, LRRCC1 / Fold change vs veh, LRRCC1 / RFU, ARID1A / Fold change vs veh, ARID1A / RFU, ZNF146 / Fold change vs veh, ZNF146 / RFU, ZNF330 / Fold change vs veh, ZNF330 / RFU, GPN3 / Fold change vs veh, GPN3 / RFU, C9orf123 / Fold change vs veh, C9orf123 / RFU, N4BP2L2 / Fold change vs veh, N4BP2L2 / RFU, ARFIP1 / Fold change vs veh, ARFIP1 / RFU, FAM179B / Fold change vs veh, FAM179B / RFU, BCL10 / Fold change vs veh, BCL10 / RFU, UHRF1BP1L / Fold change vs veh, UHRF1BP1L / RFU, BET1 / Fold change vs veh, BET1 / RFU, CNOT2 / Fold change vs veh, CNOT2 / RFU, ZNF268 / Fold change vs veh, ZNF268 / Fold change vs veh, ZNF507 / RFU, DGCR2 / Fold change vs veh, DGCR2 / RFU, WDSUB1 / Fold change vs veh, WDSUB1 / Fold change vs veh, HSP90B1 /// MIR3652 / RFU, ADSS / Fold change vs veh, ADSS / RFU, GK / Fold change vs veh, GK / RFU, ZNF148 / Fold change vs veh, ZNF148 / RFU, TAF9 / Fold change vs veh, TAF9 / RFU, SLC1A5 / Fold change vs veh, SLC1A5 / RFU, SLMO2 / Fold change vs veh, SLMO2 / RFU, ABCC4 / Fold change vs veh, ABCC4 / RFU, LOC101060439 /// RAP1B / Fold change vs veh, LOC101060439 /// RAP1B / RFU, RFX7 / Fold change vs veh, RFX7 / RFU, GTPBP10 / Fold change vs veh, GTPBP10 / RFU, CNEP1R1 / Fold change vs veh, CNEP1R1 / RFU, BIVM-ERCC5 /// ERCC5 / Fold change vs veh, BIVM-ERCC5 /// ERCC5 / RFU, ILF3 / Fold change vs veh, ILF3 / RFU 11762660_at / Fold change /veh 11762660_at / RFU VCAN (11757783_s_at) / Fold change /veh VCAN (11757783_s_at) / RFU DDX43 (11728927_at) / Fold change /veh DDX43 (11728927_at) / RFU KRT8 (11758188_x_at) / Fold change /veh KRT8 (11758188_x_at) / RFU NKD1 (11759106_at) / Fold change /veh NKD1 (11759106_at) / RFU SRD5A1 (11742802_a_at) / Fold change /veh SRD5A1 (11742802_a_at) / RFU TPSAB1 /// TPSB2 (11721975_s_at) / Fold change /veh TPSAB1 /// TPSB2 (11721975_s_at) / RFU GSTM3 (11746129_a_at) / Fold change /veh GSTM3 (11746129_a_at) / RFU IL23R (11737362_x_at) / Fold change /veh IL23R (11737362_x_at) / RFU TMEM51 (11727254_a_at) / Fold change /veh TMEM51 (11727254_a_at) / RFU PIWIL2 (11732686_x_at) / Fold change /veh PIWIL2 (11732686_x_at) / RFU ORM1 (11744905_x_at) / Fold change /veh ORM1 (11744905_x_at) / RFU CCDC152 (11743942_at) / Fold change /veh CCDC152 (11743942_at) / RFU ECM1 (11717891_a_at) / Fold change /veh ECM1 (11717891_a_at) / RFU IL23R (11748794_a_at) / Fold change /veh IL23R (11748794_a_at) / RFU TNFAIP8L3 (11732012_x_at) / Fold change /veh TNFAIP8L3 (11732012_x_at) / RFU MBOAT4 (11741988_at) / Fold change /veh MBOAT4 (11741988_at) / RFU 11764193_at / Fold change /veh 11764193_at / RFU TMEM53 (11763286_at) / Fold change /veh TMEM53 (11763286_at) / RFU MAGEB2 (11727129_at) / Fold change /veh MAGEB2 (11727129_at) / RFU TMEM200A (11744735_a_at) / Fold change /veh TMEM200A (11744735_a_at) / RFU CCDC152 (11751479_a_at) / Fold change /veh CCDC152 (11751479_a_at) / RFU FAM211A (11726209_a_at) / Fold change /veh FAM211A (11726209_a_at) / RFU RGS16 (11746705_a_at) / Fold change /veh RGS16 (11746705_a_at) / RFU VCAN (11755009_s_at) / Fold change /veh VCAN (11755009_s_at) / RFU RHOB (11743442_s_at) / Fold change /veh RHOB (11743442_s_at) / RFU RGS16 (11720943_a_at) / Fold change /veh RGS16 (11720943_a_at) / RFU RGS16 (11720944_at) / Fold change /veh RGS16 (11720944_at) / RFU, VPS4B / Fold change vs veh, VPS4B / RFU, CREB1 / Fold change vs veh, CREB1 / RFU, DNAJC13 / Fold change vs veh, DNAJC13 / RFU, GNAQ / Fold change vs veh, GNAQ / RFU, CDK5R1 / Fold change vs veh, CDK5R1 / RFU, ZRANB3 / Fold change vs veh, ZRANB3 / RFU, CUL4A / Fold change vs veh, CUL4A / RFU, CCNY / Fold change vs veh, CCNY / RFU, UFL1 / Fold change vs veh, UFL1 / RFU, COG3 / Fold change vs veh, COG3 / RFU, DIAPH2 / Fold change vs veh, DIAPH2 / RFU, SKA2 / Fold change vs veh, SKA2 / RFU, AFF3 / Fold change vs veh, AFF3 / RFU, LMF1 / Fold change vs veh, LMF1 / RFU, IPO11 / Fold change vs veh, IPO11 / RFU, DFFB / Fold change vs veh, DFFB / RFU, FOXP1 / Fold change vs veh, FOXP1 / RFU, CARD8 / Fold change vs veh, CARD8 / RFU, STRN3 / Fold change vs veh, STRN3 / RFU, ADK / Fold change vs veh, ADK / RFU, RASSF2 / Fold change vs veh, RASSF2 / RFU, WIPF1 / Fold change vs veh, WIPF1 / RFU, LARP1B / Fold change vs veh, LARP1B / RFU, RASA1 / Fold change vs veh, RASA1 / RFU, RB1 / Fold change vs veh, RB1 / RFU, PPFIA1 / Fold change vs veh, PPFIA1 / RFU, MAT2A / Fold change vs veh, MAT2A / RFU, CCT5 / Fold change vs veh, CCT5 / RFU, WDR92 / Fold change vs veh, WDR92 / RFU, CUX1 / Fold change vs veh, CUX1 / RFU, TTC7A / Fold change vs veh, TTC7A / RFU, TMEM135 / Fold change vs veh, TMEM135 / RFU, DEPTOR / Fold change vs veh, DEPTOR / RFU, CPM / Fold change vs veh, CPM / RFU, DNAJB6 / Fold change vs veh, DNAJB6 / RFU, CACNA2D3 / Fold change vs veh, CACNA2D3 / RFU, DTX4 / Fold change vs veh, DTX4 / RFU, TFCP2 / Fold change vs veh, TFCP2 / RFU, GMCL1 /// GMCL1P1 / Fold change vs veh, GMCL1 /// GMCL1P1 / RFU, AEBP2 / Fold change vs veh, AEBP2 / RFU, SNHG1 /// SNORD22 /// SNORD25 /// SNORD26 /// SNORD27 /// SNORD28 /// SNORD29 /// SNORD31 / Fold change vs veh, SNHG1 /// SNORD22 /// SNORD25 /// SNORD26 /// SNORD27 /// SNORD28 /// SNORD29 /// SNORD31 / Fold change (Aza/veh), C12orf56 (ProbeSet 11735607_a_at) / Fold change (ACY-1035/veh), C12orf56 (ProbeSet 11735607_a_at) / Fold change (Aza/veh), FGFR1OP (ProbeSet 11751329_s_at) / Fold change (ACY-1035/veh), FGFR1OP (ProbeSet 11751329_s_at) / Fold change (Aza/veh), VPS36 (ProbeSet 11739960_a_at) / Fold change (ACY-1035/veh), VPS36 (ProbeSet 11739960_a_at) / RFU SYPL1 (11715823_x_at) / Fold change /veh SYPL1 (11715823_x_at) / RFU IGFBP7 (11715501_s_at) / Fold change /veh IGFBP7 (11715501_s_at) / RFU REEP3 (11722064_at) / Fold change /veh REEP3 (11722064_at) / RFU IGLL1 (11728026_x_at) / Fold change /veh IGLL1 (11728026_x_at): dose or concentration left out as unconfirmed
# Conditions: MV-4-11 cells, 48 hours
smiles,measurement,value
Nc1ccc(-c2cccs2)cc1NC(=O)c1ccc2c(c1)cc(C1CC1)n2CCN1CCOCC1 [ACY-1035],RFU RNFT2 (11725882_a_at),13.97 RFU
